The values that follow are results of earlier work, collected in patent US12409165B2, “Pharmaceutical composition comprising eltrombopag bis(monoethanolamine)” (SYNTHON B.V., priority 2019, dated 2025).

The conditions of series [1]: qualitative statement in the background, no method given.
The conditions of series [2]: qualitative statement in the background, no method given. The source holds these as a separate data set.

The structures appear in SMILES notation.

In the case of `CC1=NN(c2ccc(C)c(C)c2)C(=O)/C1=N\Nc1cccc(-c2cccc(C(=O)O)c2)c1O.NCCO.NCCO` [Eltrombopag bis(monoethanolamine), 3′-{(2Z)-2-[1-(3,4-dimethylphenyl)-3-methyl-5-oxo-1,5-dihydro-4H-pyrazol-4-ylidene]hydrazino}-2′-hydroxy-3-biphenyl-carboxylic acid bis(monoethanolamine)], the solubility entry in series [1] is recorded as “low”. Besides, the permeability entry in series [2] was “medium”.
